From patent US20230165821A1, “ELAFIBRANOR FOR THE TREATMENT OF PRIMARY SCLEROSING CHOLANGITIS” (Genfit, priority 2020, published 2023)
Entries after “also recorded” stand apart in the source; their conditions may differ.

What was measured:
Assay type in all cases: in vivo, human
healthy male volunteers = assay: Phase I clinical trial, tolerability and safety
Procedure: (§1) This clinical trial has been performed to assess the tolerability, safety and reduction of different parameters, including alkaline phosphatase of once-a-day administrations of oral doses of elafibranor (ELA) in […]. This was a phase I, single-center, double-blind, placebo-controlled, randomised, ascending multiple-dose study in healthy male volunteers. Doses of 40 mg or 60 mg once-a-day during 14 days were tested.
(§2) Thirty 19-40 years old Caucasian male volunteers were included: 9 for each treatment group and 12 for the placebo group.
(§3) The compound used was ELA, supplied in hard gelatin capsules dosed at 10 mg. Dose per administration was of 40 mg or 60 mg. Administration was repeated once-a-day, with an oral administration around 8 a.m. with 200 mL tap water, in sitting position, in fasting conditions, from day 1 to day 14. Matching placebo was presented as identical capsules.

[1] = test system: alkaline phosphatase (ALP) level; assay: Phase I clinical trial, assessment of ALP level; conditions: for Measure of ALP Day 15 change from the baseline: fasting, n=9, baseline day 1
Description: (§4) Patients with clinical PSC have elevated alkaline phosphatase (ALP) and bilirubin levels. […] Some studies underline also elevated levels of bilirubin (Denau, M.R. et al., The Natural History of Primary Sclerosing Cholangitis in 781 Children: A Multicenter, International Collaboration. Hepatology (2017), Vol. 66, N° 2 pp518-527).
as §1, §2, §3
Alkaline phosphatase level was assessed at baseline (day 1) and day 15.

total bilirubin level = assay: Phase I clinical trial, assessment of bilirubin level; conditions: for Measure of total bilirubin Day 15 change from the baseline: fasting, n=9
Description: as §4, §1, §2, §3

[2] = ELA 40 mg/day oral once-a-day for 14 days
[3] = ELA 60 mg/day oral once-a-day for 14 days

Question: How did the Serious adverse events (healthy male volunteers; 40 mg or 60 mg once-a-day, 14 days, oral) turn out when `CSc1ccc(C(=O)C=Cc2cc(C)c(OC(C)(C)C(=O)O)c(C)c2)cc1` [ELA, 2-(2,6-dimethyl-4-{3-[4-(methylsulfanyl)phenyl]-3-oxopropen-1-yl}phenoxy)-2-methylpropanoic acid] was run?
Answer: The Serious adverse events was “No serious adverse events were reported”.

Question: And the Clinical tolerance (healthy male volunteers; repeated administration at either dose (40 mg or 60 mg), healthy volunteers)?
Answer: The Clinical tolerance was “good clinical tolerance”.

Question: What about the “Measure of ALP Day 15 change from the baseline” value [1, 2] of the same compound?
Answer: Its value is -8.3.

Question: What about the “Measure of ALP Day 15 change from the baseline” value [1, 3] of the same compound?
Answer: Its value is -20.7.

Question: And the “Alkaline phosphatase levels compared to placebo group” value ([1]; both doses (40 mg and 60 mg), once-a-day, 14 days, listed as elafibranor)?
Answer: Its value is “improved alkaline phosphatase levels compared to placebo group; also recorded: decreased mean ALP compared with placebo”.

Question: And the “Measure of total bilirubin Day 15 change from the baseline” value (total bilirubin level; [2])?
Answer: The value was -2.07.

Question: And the “Measure of total bilirubin Day 15 change from the baseline” value (total bilirubin level; [3])?
Answer: Its value is -2.46.

Question: And the “Total bilirubin levels compared to placebo group” value (total bilirubin level; both doses (40 mg and 60 mg), once-a-day, 14 days)?
Answer: Its value is “improved total bilirubin levels compared to placebo group”.
